Entries after “also recorded” stand apart in the source; their conditions may differ.
Experiments:
[1] = system: spinal nerve ligation model (Chung model); assay: Spinal nerve ligation (Chung) model, mechanical allodynia; type: in vivo, rats; conditions: 25 mg/kg single dosing via i.p.; von Frey filaments
Experimental: Compound 14 and Compound 23 were prepared for i.p. administration as follows. 250 mg/ml of each of the compounds to be tested, was dissolved in a mixture of Cremophor EL/alcohol (90:10) (volume:volume), respectively, by brief sonication on ice, followed by further 10-fold dilution in saline solution (9% Cremophor EL; 1% ETOH and 90% saline) to give a final concentration of 25 mg/ml. before injection. 1 ml/kg (body weight) of compound solution was administered via i.p. to rats, to yield a dose of 25 mg/kg. 180–200 grams of body weight, male, Sprague-Dawley rats from Harlan were used. They were housed under the standard housing conditions and trained for 1 week before measurement of the baseline. The rats were prepared in the manner described in Example V, above, by i.p. admininstration of Taxol. The spinal nerve ligation surgery was performed as described by Kim & Chung (Kim, S. O., and Chung, J. M., An experimental model for peripheral neuropathy produced by segmental spinal nerve ligation in rat. Pain. 1992; 50:355–363.). The development of neuropathic pain was measured using 50% of threshold measurement using von Frey filaments. […] Generally speaking, the mechanical allodynia in spinal nerve ligation model rats fell in the range of 1–4 grams of the paw withdrawal threshold. The results of the tests are set forth in FIG. 8 and are summarized in the last two rows of Table III.

[2] = system: Taxol-induced neuropathic pain model in mice; assay: Taxol-induced neuropathic pain model, mechanical allodynia (von Frey filament); type: in vivo
Source text: Taxol is a chemotherapeutic reagent for treatment of cancer patients. Cancer patients under Taxol chemotherapy can develop neuropathic pain, with a symptom of severe mechanical allodynia, so that a light touch (non-noxious stimulus in a normal condition) becomes painful. […] Recent studies have shown that Taxol is involved in TNF-alpha release in microglia cells. As one of the clinically relevant models, Taxol-induced neuropathic pain was developed in mice and rats. It is believed that small-diameter high threshold nociceptive C-fibers in the peripheral sensory nervous systems are largely, if not exclusively, affected in the Taxol-induced neuropathic pain models.
In this series of experiments, five-week old, male C57B1/6 mice were purchased from Charles River and housed at the Renovis animal facility in South San Francisco. Mice were trained for one week in an enclosure made of Plexiglas with dimensions of 2 in×2.5 in×3.5 in (W, H, and L) with a meshed metal support. The baseline of response to mechanical stimulus was measured using a von Frey Filament (0.6 g=3.84 mN). Normally, the baseline response is between 0 to 40%.
Taxol was dissolved (1 mg/ml) in 50% Cremophor EL and 50% alcohol, and freshly diluted with saline to the final concentration of 0.2 mg/ml in 10% Cremophor EL, 10% alcohol. Mice were administered Taxol at 1 mg/kg of body weight, via i.p. daily, while the animals of the control group received vehicle (10% Cremophor EL and 10% alcohol in saline).
Animals receiving this daily dose of Taxol will develop neuropathic pain. The mechanical allodynia was measured at day 7, 8, or 14 after Taxol administration.
A quantity of 200 mg of compound 14 (Example 14) was dissolved in 0.4 ml of 100% DMSO to yield a concentration of 500 mg/ml, and was kept at 4° C. until use. Methylcellulose was dissolved in deionized-distilled water to yield a concentration of 1%. The freshly prepared meythlcellulose was used to make a suspension of the compound, 10 mg of compound in 2.5% DMSO (V/V) and 1% methylcellulose. The suspension was sonicated for 6 min with a 5 second interval every 30 seconds before administration to animals.
A quantity of 50 mg/kg (body weight) compound or vehicle (2.5% DMSO and 1% methylcellulose), 100 μl/20 g (body weight) was given to animals via gavage feeding procedure in a randomized, blinded fashion. The animals were then placed in the enclosure for assay. Mechanical allodynia was measured with von Frey filament (0.6 g=[…]) at various times after administration.
Referring to FIG. 5, baseline in the group of animals was measured as 25+/−4% (n=24, ±SEM) before induction of neuropathic pain with Taxol (or sham treatment), where the response was measured with a von Frey filament (0.6 g=3.84 mN) as the percent of trials a withdrawal response is observed after probing with the filament. The higher the percentage, the greater the inferred pain.
Sixteen animals were treated with Taxol daily to induce neuropathic pain. Mechanical allodynia was assayed at day 8; average withdrawal response was measured as 81±5% (n=16, ±SEM). Sixteen animals were treated with matching vehicle to create sham animals. The Taxol and sham animals were then separated randomly into two groups of 8 animals each for drug vs. vehicle testing. Withdrawal responses to a von Frey filament probe were measured at 1, 6, 24, and 72 hours post-administration of drug or vehicle control, and averaged for each animal. […] Negative values reflect a reduction in inferred pain.
For mouse neuropathic pain studies, C57B1/6 strain, five-weeks old male mice were obtained from Charles River, San Diego, Calif. A total of 120 mice were used for the studies. 4 mice per cage were housed under standard conditions with 12-hour light and 12-hour dark cycles (in Renovis, Inc, South San Francisco facility). For rat neuropathic pain studies, male Sprague-Dawley rats, with body weights ranging from 180–200 grams, were obtained from Harlan. A total of 42 rats were used for this study. […]

[3] = Taxol/mice, P.O., Single dosing, 50 Mg/Kg body weight

Compound | effect on mechanical allodynia (paw withdrawal threshold) [1] | time postdosing of analgesic effect ([2]; 50 mg/kg single dose via oral gavage) | effect on mechanical allodynia (Taxol-induced pain) ([2]; 50 mg/kg single dose via oral gavage, von Frey filament 0.6 g, measured 1, 6, 24, up to 48 or 72 hours postdosing) | Effective time Hour post dosing [2, 3] | extent of block of mechanical allodynia [2, 3]
COc1ccc(CCCC=[N+]([O-])C(C)(C)C)cc1 [Compound 23] | significant analgesic effects over control; also recorded: attenuate mechanical allodynia | – | – | – | –
N-tert-butyl-C-(4-phenylpropyl)nitrone [Compound 14] | significant analgesic effects over control; also recorded: attenuate mechanical allodynia | up to 24 hour | inhibits mechanical allodynia; also recorded: significant reduction of mechanical allodynia; also recorded: activity preventing Taxol-induced pain | ~24 h | block
